From patent US20120252796A1, “COMPOUNDS FOR THE TREATMENT OF DYSLIPIDEMIA AND RELATED DISEASES” (priority 2009, published 2012)
Values belong to the molecule of their own block, whether it stands above or below them.

Experiments:
PCSK9 [1] = biological target: T1, PCSK9 (Homo sapiens, UniProt Q8NBP7); assay: SPR binding studies (BIACORE3000); details: 25° C., phosphate buffer pH 7.4; compounds run at 10 nM, 100 nM and 1 micro mole, concentration of the value not stated
Protocol: Instrumentation: BIACORE3000 from GE Life Sciences was used and the Interaction analysis was performed at 25° C.
Buffers: phosphate buffer pH 7.4 supplied by Biacore supplemented with 0.01% dimethyl sulfoxide (DMSO) was used as running buffer during the assay.
Immobilization of Ligand: Sensor chip CM5 was used for analysis. The sensor chip consists of a carboxymethyl-modified dextran polymer linked to a gold-covered glass support. The ligand was diluted to 10 micro gram/ml in 10 mM sodium acetate, pH5.0 and immobilized to the sensor chip, using amine coupling. Running buffer without DMSO was used during immobilization. The surface was activated by injecting a solution containing 0.2M N-ethyl-N′-dimethyl aminopropyl-carbodiimide (EDC) and 50 mM N-hydroxy succinimide (NHS). The system was set for Aim for immobilization of about 1000 RU and the surface was blocked by injecting 1 Mehanolamine at pH 8.5. Then the surface was washed with 50 mM NaOH by injecting two 30 second-pulses to remove off non covalently bound ligand and to stabilize the baseline (automated procedure). Activated dextran was used as a reference surface. To ensure highest sensitivity the SPR Detector response was normalized before running the assay. By calibrating the detector at various light intensities under Conditions of total internal reflection (automated procedure). Solvent correction for DMSO was also carried to minimize the error in data.
Assay Design: A binding assay was set up for different compounds at three different concentrations (10 nM, 100 nM and 1 micro mole), and were injected over the reference and Ligand flow cells at a flow rate of 30 micro liter/min. Each cycle consisted of a 1-min waiting period for monitoring of the baseline stability and 3 minute injection of compound with a 5 minute Undisturbed dissociation phase, and the surface was regenerated with 50 mM NaoH solution. Compound responses in the reference flow cell were subtracted with that of ligand and a solvent correction run was carried in between and the binding potential of the compounds was reported as relative response units (RU).
Target sequence in this assay (Q8NBP7 153-692): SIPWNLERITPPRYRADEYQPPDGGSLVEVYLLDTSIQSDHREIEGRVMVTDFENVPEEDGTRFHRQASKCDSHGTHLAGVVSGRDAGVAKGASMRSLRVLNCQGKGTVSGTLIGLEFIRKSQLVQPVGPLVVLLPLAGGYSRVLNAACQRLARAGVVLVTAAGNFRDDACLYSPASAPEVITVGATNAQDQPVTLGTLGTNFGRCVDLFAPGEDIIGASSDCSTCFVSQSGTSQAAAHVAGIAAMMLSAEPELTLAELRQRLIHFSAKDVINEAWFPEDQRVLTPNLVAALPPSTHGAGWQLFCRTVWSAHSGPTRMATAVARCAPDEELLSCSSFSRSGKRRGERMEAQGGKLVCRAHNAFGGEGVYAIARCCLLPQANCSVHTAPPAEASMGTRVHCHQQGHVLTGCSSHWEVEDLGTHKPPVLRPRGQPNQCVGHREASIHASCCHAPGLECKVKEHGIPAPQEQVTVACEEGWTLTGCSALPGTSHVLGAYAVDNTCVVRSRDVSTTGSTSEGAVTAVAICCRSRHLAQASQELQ

PCSK9 [2] = biological target: T1, PCSK9; assay: PCSK9-LDLR in vitro Binding Assay (ELISA); details: for inhibition at 5 µM: Concentration 5 μM
Protocol: The PCSK9-LDLR in vitro Binding Assay is a quantitative solid phase binding assay between PCSK9 and recombinant LDLR. Plates were pre-coated with a recombinant LDLR-AB domain, which binds PCSK9. Test compound at different concentration was added to the PCSK9 and added to LDLR immobilized on the wells. The amount of bound PCSK9 is measured by binding it with biotinylated anti-His-tag monoclonal antibody, followed by binding with horseradish peroxidase conjugated streptavidin substrate. The color was quantified by ELISA reader at […] which reflects the relative amount of PCSK9 that binds to LDLR in presence and absence of the inhibitor. EC50 values were calculated by nonlinear regression analysis using graph pad prism software. Each concentration point represents values in duplicates.
Target sequence in this assay (Q8NBP7 153-692): as above
Target sequence in this assay (Q8NBP7 31-152 partner limits assumed): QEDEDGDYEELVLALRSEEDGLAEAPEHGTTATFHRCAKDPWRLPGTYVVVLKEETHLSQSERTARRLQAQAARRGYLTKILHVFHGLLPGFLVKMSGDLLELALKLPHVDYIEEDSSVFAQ

Relative response (RU) (PCSK9 [1]): 2.64 RU
% Inhibition PCSK9 (PCSK9 [2]; Concentration 1 μM, 1 µM): 32%
% Inhibition PCSK9 (PCSK9 [2]; Concentration 10 μM, 10 µM): 44%
% Inhibition PCSK9 (PCSK9 [2]; Concentration 100 μM, 100 µM): 34%
Structure (SMILES): Cc1oc(-c2ccncc2)nc1CC1COC(C)(C(=O)NO)OC1 (stereo not drawn) [Example 80, N-hydroxy-2-methyl-5-c-((5-methyl-2-(pyridin-4-yl)oxazol-4-yl)methyl)-1,3-dioxane-2-carboxamide]

Relative response (RU) (PCSK9 [1]): 17.29 RU
% Inhibition PCSK9 (PCSK9 [2]; Concentration 1 μM, 1 µM): 22%
% Inhibition PCSK9 (PCSK9 [2]; Concentration 10 μM, 10 µM): 30%
% Inhibition PCSK9 (PCSK9 [2]; Concentration 100 μM, 100 µM): 44%
Structure (SMILES): Cc1oc(-c2ccncc2)nc1CC1COC(C)(C(=O)NCC2CCOCC2)OC1 (stereo not drawn) [Example 85, 2-methyl-5-t-((5-methyl-2-(pyridin-4-yl)oxazol-4-yl)methyl)-N—((tetrahydro-2H-pyran-4-yl)methyl)-1,3-dioxane-2-carboxamide]

Relative response (RU) (PCSK9 [1]): 3.48 RU
% Inhibition PCSK9 (PCSK9 [2]; Concentration 0.1 μM): 20%
% Inhibition PCSK9 (PCSK9 [2]; Concentration 1 μM, 1 µM): 23%
% Inhibition PCSK9 (PCSK9 [2]; Concentration 10 μM, 10 µM): 25%
% Inhibition PCSK9 (PCSK9 [2]; Concentration 100 μM, 100 µM): 49%
Structure (SMILES): Cc1ccc(-c2nc(CC3COC(C)(C(=O)NCC4CCOCC4)OC3)c(C)o2)cc1 (stereo not drawn) [Example 64, 2-methyl-5-t-((5-methyl-2-(p-tolyl)oxazol-4-yl)methyl)-N—((tetrahydro-2H-pyran-4-yl)methyl)-1,3-dioxane-2-carboxamide]

Relative response (RU) (PCSK9 [1]): 14.1 RU
% Inhibition PCSK9 (PCSK9 [2]; Concentration 10 μM): 23%
% Inhibition PCSK9 (PCSK9 [2]; Concentration 100 μM): 25%
Structure (SMILES): Cc1oc(-c2ccccc2)nc1CC1COC(C)(C(=O)NCC(=O)N2CCOCC2)OC1 (stereo not drawn) [Example 19, 2-methyl-5-c-((5-methyl-2-phenyloxazol-4-yl)methyl)-N-(2-morpholino-2-oxoethyl)-1,3-dioxane-2-carboxamide]

% Inhibition PCSK9 (PCSK9 [2]; Concentration 10 μM, 10 µM): 7%
% Inhibition PCSK9 (PCSK9 [2]; Concentration 100 μM, 100 µM): 10%
Structure (SMILES): Cc1oc(-c2ccncc2)nc1CC1COC(C)(C(=O)NCC(=O)NCC2CCOCC2)OC1 (stereo not drawn) [Example 89, 2-methyl-5-t-((5-methyl-2-(pyridin-4-yl)oxazol-4-yl)methyl)-N-(2-oxo-2-(((tetrahydro-2H-pyran-4-yl)methyl)amino)ethyl)-1,3-dioxane-2-carboxamide]

Relative response (RU) (PCSK9 [1]): 10.3 RU
Structure (SMILES): Cc1oc(-c2ccccc2)nc1CC1COC(C)(C(=O)NCCC(=O)N2CCOCC2)OC1 (stereo not drawn) [Example 26, 2-methyl-5-c-((5-methyl-2-phenyloxazol-4-yl)methyl)-N-(3-morpholino-3-oxopropyl)-1,3-dioxane-2-carboxamide]

% Inhibition PCSK9 (PCSK9 [2]; Concentration 10 μM): 14%
% Inhibition PCSK9 (PCSK9 [2]; Concentration 100 μM): 21%
Structure (SMILES): Cc1oc(-c2ccccc2)nc1CCC1COC(C)(C(=O)NCC2CCOCC2)OC1 (stereo not drawn) [Example 38, 2-methyl-5-c-(2-(5-methyl-2-phenyloxazol-4-yl)ethyl)-N—((tetrahydro-2H-pyran-4-yl)methyl)-1,3-dioxane-2-carboxamide]

inhibition at 1 µM (PCSK9 [2]; Concentration 1 μM): 38%
inhibition at 10 µM (PCSK9 [2]; Concentration 10 μM): 38%
inhibition at 100 µM (PCSK9 [2]; Concentration 100 μM): 42%
Structure (SMILES): Cc1oc(-c2ccccc2)nc1CCC1COC(C)(C(=O)NCC(=O)N2CCOCC2)OC1 (stereo not drawn) [Example 47, 2-methyl-5-(2-(5-methyl-2-phenyloxazol-4-yl)ethyl)-N-(2-morpholino-2-oxoethyl)-1,3-dioxane-2-carboxamide]

% Inhibition PCSK9 (PCSK9 [2]; Concentration 1 μM, 1 µM): 4%
% Inhibition PCSK9 (PCSK9 [2]; Concentration 10 μM, 10 µM): 15%
% Inhibition PCSK9 (PCSK9 [2]; Concentration 100 μM, 100 µM): 27%
Structure (SMILES): Cc1ccc(-c2nc(CC3COC(C)(C(=O)NCC4CCOCC4)OC3)c(C)o2)s1 (stereo not drawn) [Example 74, 2-methyl-5-c-((5-methyl-2-(5-methylthiophen-2-yl)oxazol-4-yl)methyl)-N—((tetrahydro-2H-pyran-4-yl)methyl)-1,3-dioxane-2-carboxamide]

% Inhibition PCSK9 (PCSK9 [2]; Concentration 10 μM, 10 µM): 10%
% Inhibition PCSK9 (PCSK9 [2]; Concentration 100 μM, 100 µM): 15%
Structure (SMILES): Cc1oc(-c2ccncc2)nc1CC1COC(C)(C(=O)NCC(=O)NCC2CCOCC2)OC1 (stereo not drawn) [Example 88, 2-methyl-5-c-((5-methyl-2-(pyridin-4-yl)oxazol-4-yl)methyl)-N-(2-oxo-2-(((tetrahydro-2H-pyran-4-yl)methyl)amino)ethyl)-1,3-dioxane-2-carboxamide]

% Inhibition PCSK9 (PCSK9 [2]; Concentration 10 μM, 10 µM): 21%
% Inhibition PCSK9 (PCSK9 [2]; Concentration 100 μM, 100 µM): 32%
Structure (SMILES): Cc1ccc(-c2nc(CC3COC(C)(C(=O)NO)OC3)c(C)o2)cc1 (stereo not drawn) [Example 61, N-hydroxy-2-methyl-5-t-((5-methyl-2-(p-tolyl)oxazol-4-yl)methyl)-1,3-dioxane-2-carboxamide]

% Inhibition PCSK9 (PCSK9 [2]; Concentration 10 μM, 10 µM): 12%
% Inhibition PCSK9 (PCSK9 [2]; Concentration 100 μM, 100 µM): 7%
Structure (SMILES): Cc1oc(-c2ccncc2)nc1CC1COC(C)(C(=O)NCC(=O)N2CCOCC2)OC1 (stereo not drawn) [Example 87, 2-methyl-5-t-((5-methyl-2-(pyridin-4-yl)oxazol-4-yl)methyl)-N-(2-morpholino-2-oxoethyl)-1,3-dioxane-2-carboxamide]

Continued, molecule first:

Structure (SMILES): Cc1oc(-c2ccccc2)nc1CCC1COC(C)(C(=O)NO)OC1 (stereo not drawn) [Example 35, N-hydroxy-2-methyl-5-c-(2-(5-methyl-2-phenyloxazol-4-yl)ethyl)-1,3-dioxane-2-carboxamide]
% Inhibition PCSK9 (PCSK9 [2]; Concentration 1 μM, 1 µM): 18%
% Inhibition PCSK9 (PCSK9 [2]; Concentration 10 μM): 19%
% Inhibition PCSK9 (PCSK9 [2]; Concentration 100 μM, 100 µM): 19%

Structure (SMILES): Cc1oc(-c2ccccc2)nc1CCC1COC(C)(C(=O)N2CCN(C)CC2)OC1 (stereo not drawn) [Example 43, (2-methyl-5-c-(2-(5-methyl-2-phenyloxazol-4-yl)ethyl)-1,3-dioxan-2-yl)(4-methylpiperazin-1-yl)methanone]
% Inhibition PCSK9 (PCSK9 [2]; Concentration 10 μM): 8%
% Inhibition PCSK9 (PCSK9 [2]; Concentration 100 μM): 10%

Structure (SMILES): Cc1oc(-c2ccccc2)nc1CCC1COC(C)(C(=O)N2CCOCC2)OC1 (stereo not drawn) [Example 41, (2-methyl-5-c-(2-(5-methyl-2-phenyloxazol-4-yl)ethyl)-1,3-dioxan-2-yl)(morpholino)methanone]
% Inhibition PCSK9 (PCSK9 [2]; Concentration 10 μM): 12%
% Inhibition PCSK9 (PCSK9 [2]; Concentration 100 μM): 19%

Structure (SMILES): Cc1oc(-c2ccccc2)nc1CCC1COC(C)(C(=O)N2CCSCC2)OC1 (stereo not drawn) [Example 45, (2-methyl-5-c-(2-(5-methyl-2-phenyloxazol-4-yl)ethyl)-1,3-dioxan-2-yl)(thiomorpholino)methanone]
% Inhibition PCSK9 (PCSK9 [2]; Concentration 10 μM): 11%
% Inhibition PCSK9 (PCSK9 [2]; Concentration 100 μM): 18%

Structure (SMILES): Cc1oc(C(C)(C)C)nc1CC1COC(C)(C(=O)NO)OC1 (stereo not drawn) [Example 72, 5-((2-(tert-butyl)-5-methyloxazol-4-yl)methyl)-N-hydroxy-2-methyl-1,3-dioxane-2-carboxamide]
inhibition at 5 µM (PCSK9 [2]): 11%
inhibition at 100 µM (PCSK9 [2]; Concentration 100 μM): 25%
inhibition at 110 µM (PCSK9 [2]; Concentration 110 μM): 20%

Structure (SMILES): CC(=O)C(Cc1ccccc1)NC(=O)CNC(=O)C1(C)OCC(CCc2nc(-c3ccccc3)oc2C)CO1 (stereo not drawn) [Example 55, 2-methyl-5-(2-(5-methyl-2-phenyloxazol-4-yl)ethyl)-N-(2-oxo-2-((3-oxo-1-phenylbutan-2-yl)amino)ethyl)-1,3-dioxane-2-carboxamide]
inhibition at 10 µM (PCSK9 [2]; Concentration 10 μM): 23%
inhibition at 100 µM (PCSK9 [2]; Concentration 100 μM): 30%

Structure (SMILES): Cc1oc(-c2ccccc2)nc1CC1COC(C)(C(=O)NOCc2ccccc2)OC1 (stereo not drawn) [Example 1, N-(benzyloxy)-2-methyl-5-((5-methyl-2-phenyloxazol-4-yl)methyl)-1,3-dioxane-2-carboxamide]
inhibition at 5 µM (PCSK9 [2]): 25%
inhibition at 10 µM (PCSK9 [2]; Concentration 10 μM): 30%
inhibition at 100 µM (PCSK9 [2]; Concentration 100 μM): 32%

Structure (SMILES): Cc1oc(-c2ccccc2)nc1CCC1COC(C)(C(=O)NO)OC1 (stereo not drawn) [Example 36, N-hydroxy-2-methyl-5t-(2-(5-methyl-2-phenyloxazol-4-yl)ethyl)-1,3-dioxane-2-carboxamide]
% Inhibition PCSK9 (PCSK9 [2]; Concentration 1 μM, 1 µM): 10%
% Inhibition PCSK9 (PCSK9 [2]; Concentration 100 μM, 100 µM): 24%

Structure (SMILES): Cc1oc(-c2ccccc2)nc1CC1COC(C)(C(=O)NCC(=O)N2CCSCC2)OC1 (stereo not drawn) [Example 23, 2-methyl-5-c-((5-methyl-2-phenyloxazol-4-yl)methyl)-N-(2-oxo-2-thiomorpholinoethyl)-1,3-dioxane-2-carboxamide]
% Inhibition PCSK9 (PCSK9 [2]; Concentration 10 μM): 21%
% Inhibition PCSK9 (PCSK9 [2]; Concentration 100 μM): 22%
